In patent US4929614A, “Benzodiazepines, process and intermediates for the preparation thereof and their application in therapy” (Jouveinal S.A., priority 1988, dated 1990):
Read-outs that look alike come from different tables or passages of the source.

Experiments:
[1] = biological target: T1, CCK receptors of rat pancreas (Rattus norvegicus, UniProt P30551); assay: Inhibition of binding of sulphated [125I]-CCK8 to receptors of rat pancreas plasma membranes; conditions: for ratio of the IC50 for the brain receptors to the IC50 for the pancreas receptors: guinea-pig brain / rat pancreas
T1 construct: of rat pancreas plasma membranes; from tissue; host or cells: rat pancreas plasma membranes (SD50 males; animals from IFFA CREDO)
T1 sequence (P30551 1-444): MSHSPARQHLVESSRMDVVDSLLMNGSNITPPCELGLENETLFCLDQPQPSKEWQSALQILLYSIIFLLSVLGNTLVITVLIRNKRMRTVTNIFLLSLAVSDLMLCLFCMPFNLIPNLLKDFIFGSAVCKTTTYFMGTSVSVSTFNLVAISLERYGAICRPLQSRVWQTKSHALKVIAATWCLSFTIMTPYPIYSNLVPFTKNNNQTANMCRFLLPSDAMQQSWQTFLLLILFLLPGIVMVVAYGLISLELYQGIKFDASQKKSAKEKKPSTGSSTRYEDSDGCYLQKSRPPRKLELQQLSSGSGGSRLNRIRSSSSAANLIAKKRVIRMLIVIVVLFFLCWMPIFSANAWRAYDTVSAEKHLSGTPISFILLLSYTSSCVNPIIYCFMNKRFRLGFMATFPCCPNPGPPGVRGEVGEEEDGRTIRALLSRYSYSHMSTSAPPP
Excerpt: of rat pancreas plasma membranes (SD50 males, IFFA CREDO, 200-225 g)

[2] = biological target: T2, CCK receptors of guinea-pig brain (Cavia porcellus, UniProt H0VZC5); assay: Inhibition of binding of sulphated [125I]-CCK8 to receptors of guinea-pig brain membranes
T2 construct: of guinea-pig brain membranes; from tissue; host or cells: guinea-pig brain membranes (males; animals from COB LABO)
T2 sequence (H0VZC5 1-426): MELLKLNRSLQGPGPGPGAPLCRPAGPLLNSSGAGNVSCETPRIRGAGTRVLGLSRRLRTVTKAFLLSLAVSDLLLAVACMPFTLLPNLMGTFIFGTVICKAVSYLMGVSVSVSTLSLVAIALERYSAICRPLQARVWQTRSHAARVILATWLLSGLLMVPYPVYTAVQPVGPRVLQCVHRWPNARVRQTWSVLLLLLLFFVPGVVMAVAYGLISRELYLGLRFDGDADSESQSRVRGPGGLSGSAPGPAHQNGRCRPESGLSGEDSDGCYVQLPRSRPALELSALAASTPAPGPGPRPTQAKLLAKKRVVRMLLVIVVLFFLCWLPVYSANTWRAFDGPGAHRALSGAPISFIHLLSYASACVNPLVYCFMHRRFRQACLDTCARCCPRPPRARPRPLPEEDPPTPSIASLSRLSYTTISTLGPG
Excerpt: of guinea-pig brain membranes (males, COB LABO, 325-350 g) according to the protocol described by INNIS R. B. and SNYDER S. M., Eur. J. Pharmacol., 65, 123-124, 1980.

[3] = system: inhibition of gastric emptying caused by sulphated CCK-8; assay: Gastric emptying model in mice: antagonism of the inhibition of gastric emptying caused by sulphated CCK-8; format: in vivo, mice (SWISS male); conditions: Mus musculus, sulphated CCK-8 80 μg/kg, sc
Acute toxicity = conditions: mouse, in vivo, male mice
IRWIN's tests (behavior) = conditions: for IRWIN (first dose modifying one of the parameters of behavior): male mice; for selectivity ratio: mouse, in vivo
Protocol: The acute toxicity was evaluated and IRWIN's tests (IRWIN S., Psychopharmacologia, 13, 222-257, 1968) were performed in male mice (20-21 g).

[4] = guinea-pig brain membranes, read-out: Binding (IC50) [125I]-CCK8-SO4 Brain

Compound	IC50 [1] [nM]	ratio of the IC50 for the brain receptors to the IC50 for the pancreas receptors [1]	IC50 [2, 4] [nM]	ED50 [3] [mg/kg]	LD50 (Acute toxicity) [mg/kg]	IC50 [2] [nM]	IRWIN (first dose modifying one of the parameters of behavior) (IRWIN's tests (behavior)) [mg/kg]	selectivity ratio (IRWIN's tests (behavior))
O=C(NC1N=C(c2ccccc2F)c2cc(Cl)cc3c2N(CC3)C1=O)c1cc2cc(Cl)ccc2[nH]1 (centres unmarked) [Il, 8-chloro-4-[(5-chloro-2-indolyl)carbonylamino]-6-(2-fluorophenyl)-1,2,3,4-tetrahydropyrrolo[3,2,1-jk][1,4]benzodiazepin-3-one]	12.3	2552.2	21400					
O=C(NC1N=C(c2ccccc2)c2cccc3c2N(CC3)C1=O)c1cccc(I)c1 (centres unmarked) [Ic, 4-(3-Iodobenzoylamino)-6-phenyl-1,2,3,4-pyrrolo[3,2,1-j,k][1,4]benzodiazepin-3-one]	45	195.6	8800					
O=C(NC1N=C(c2ccccc2F)c2cc(Cl)cc3c2N(CC3)C1=O)c1cc(Cl)cc(Cl)c1 (centres unmarked) [Im, 8-chloro-4-(3,5-dichlorobenzoylamino)-6-(2-fluorophenyl)-1,2,3,4-tetrahydropyrrolo[3,2,1-jk][1,4]benzodiazepin-3-one]	30.6	831.1	25400					
CN1C(=O)C(NC(=O)c2cc3ccccc3[nH]2)N=C(c2ccccc2)c2ccccc21 (racemic) [IIa, reference compound]				0.05	> 600			
O=C(NC1N=C(c2ccccc2)c2cccc3c2N(CCC3)C1=O)c1cc2ccccc2[nH]1 (centres unmarked) [In, 5-(2-indolylcarbonylamino)-7-phenyl-1,2,3,3a,4,5-hexahydropyrido[3,2,1-jk][1,4]benzodiazepin-4-one]	3.9	104.4				407		
O=C(N[C@@H]1N=C(c2ccccc2)c2cccc3c2N(CC3)C1=O)c1cc2ccccc2[nH]1 [If, (+)-(4R)-4-(2-Indolycarbonylamino)-6-phenyl-1,2,3,4-tetrahydropyrrolo[3,2,1-jk][1,4]benzodiazepin-3-one]	8640	2.8				24000		
O=C(N[C@H]1N=C(c2ccccc2)c2cccc3c2N(CC3)C1=O)c1cc2ccccc2[nH]1 [Ie, (-)-(4S)-4-(2-Indolylcarbonylamido)-6-phenyl-1,2,3,4-tetrahydropyrrolo[3,2,1-jk][1,4]benzodiazepin-3-one]	1.5	318.0		0.087	> 1000	477	> 1000	> 11000
O=C(NC1N=C(c2ccccc2F)c2cccc3c2N(CC3)C1=O)c1cc2ccccc2[nH]1 (centres unmarked) [Ig]	0.023	15913		0.076	> 1000	366	> 300	> 3900
O=C(NC1N=C(c2ccccc2)c2cccc3c2N(CC3)C1=O)c1cc2ccccc2[nH]1 (centres unmarked) [Ia, 4-(indol-2-ylcarbonylamino)-phenyl-6-tetrahydro-1,2,3,4-pyrrolo[3,2,1-jk][1,4]benzodiazepin-3-one]	5.3	209.4		0.104	> 1000	1110	> 1000	> 7600
O=C(NC1N=C(c2ccccc2)c2cccc3c2N(CC3)C1=O)c1ccc(Cl)cc1 (centres unmarked) [Ib, 4-(4-Chlorobenzoylamino)-6-phenyl-1,2,3,4-tetrahydropyrrolo-[3,2,1-jk]benzodiazepin[1,4]-3-one]	37	83.8	3100					
